Entries after “also recorded” stand apart in the source; their conditions may differ. Where two headings read alike, the source gives them in different places.

One data set deals with DU-145 cells. Put plainly: CellTiter-Glo assay, DU-145. It is filed as cell-based. The conditions noted are these: Homo sapiens; DU-145 Prostate, 72 hr; read-out: IC50 (50% Inhibition of Proliferation). As to the method: (§1) MDA-MB-231, HT-29, NCI-H460, NCI-H522, NCI-H69, GXF-209, HepG2, OVAR-3, PANC-1, DU-145, LNCAP, HL-60, K-562, and MOLT-4 cell lines were either obtained from the American Type Culture Collection (ATCC; Manassas, Va.), or from the National Cancer Institute (NCI; Frederick, Md.). RPMI-1640 media, L-glutamine dipeptide (HyQ SG-200), and HEPES were obtained from Hyclone (Logan, Utah).
(§2) All cell lines were routinely cultured twice weekly in RPMI-1640 medium supplemented with 2 mM L-glutamine dipeptide, 10 mM HEPES, and 10% FBS.
(§3) The adherent cell lines MDA-MB-231, HT-29, NCI-H460, NCI-H522, GXF-209, HepG2, OVAR-3, PANC-1, DU-145, and LNCAP cells were each seeded into two 96-well plates at 2,500 cells per well in a total volume of 50 uL and incubated in a 37° C. humidified 5% CO2 cell culture incubator overnight. The suspension cell lines NCI-H69, HL-60, K-562, and MOLT-4 were each seeded into two 96-well plates at 10,000 cell per well in a total volume of 50 uL and incubated in a 37° C. humidified 5% CO2 incubator overnight.
(§4) This was followed by making 2× stocks of the final concentrations required in RPMI-1640 medium. […]
(§5) Briefly, plates were removed from the incubator and placed on the bench at room temperatures for 30 minutes. […] Luminescence was then recorded using the PerkinElmer Microbeta scintillation and luminescence counter (Trilux).
On the technique in general: In ATP-based viability assays light output follows the ATP content of the culture.

The next data set deals with MDA-MB-231 cells. Put plainly: CellTiter-Glo assay, MDA-MB-231. Particulars: Homo sapiens; MDA-MB-231 Breast, 72 hr; read-out: IC50 (50% Inhibition of Proliferation). It is filed as cell-based. As to the method:
as §1, §2, §3, §4, §5

The test system of another data set is C. glabrata. Nature of the data set: Antifungal susceptibility testing (broth dilution), C. glabrata. It is filed as cell-based, Candida glabrata. The conditions noted are these: for MIC: Nakaseomyces glabratus, read-out: minimum inhibitory concentration (MIC). As to the method:
Anti-fungal testing was completed with a common lot for compounds 100 and 102.
A 10 mg portion of each powder was weighed out and added to 1 ml of sterile distilled water for compound 100 and DMSO for compound 102. The resulting concentration of […] was diluted to a working concentration of 640 μg/ml for each compound. All subsequent dilutions were also made using the respective diluents. Final testing concentrations ranged from 0.125-64 μg/ml.
A total of 23 isolates were tested to include 3 Candida albicans, 3 Candida glabrata, 3 Cryptococcus neoformans, 3 Aspergillus fumigatus, 3 Rhizopus oryzae, 3, Fusarium solani, 3 Pseudallescheria boydii, and 2 […] rubrum. All isolates were clinical isolates submitted to the Fungus Testing Laboratory for evaluation. Antifungal susceptibility testing was accomplished according to the methods outlined in the National Committee for Clinical Laboratory Standards, M-27A2, Reference Method for Broth Dilution Antifungal Susceptibility Testing of Yeasts; Approved Standard, and M38-A “Reference Method for Broth Dilution Antifungal Susceptibility Testing of Conidium-Forming Filamentous Fungi; Approved Standard”. This includes testing in RPMI-1640 with glutamine and without bicarbonate, an inoculum size of 0.5-2.5×10^3 for yeasts or 1-5×10^4 for moulds, and incubation at 35° C. for 24 and 48 hours.
In general terms: In broth dilution the organism is exposed to a series of concentrations in liquid medium.

The next data set has as its system K-562 cells. Put plainly: CellTiter-Glo assay, K-562. The conditions noted are these: Homo sapiens, K562; K-562 Leukemia chronic myelo, 72 hr; read-out: IC50 (50% Inhibition of Proliferation). It is filed as cell-based. As to the method:
as §1, §2, §3, §4, §5

A further data set concerns GXF-209 cells. Put plainly: CellTiter-Glo assay, GXF-209. Type of data set: cell-based. The conditions noted are these: Homo sapiens; GXF-209 Stomach, 72 hr; read-out: IC50 (50% Inhibition of Proliferation). As to the method:
as §1, §2, §3, §4, §5

Data set [1] can be described thus: Solubility (water, lipid). It is filed as physicochemical.
The subject of another data set is GBM cell line U373. Nature of the data set: Inhibition of growth of GBM cell line U373 by single agents (cell counts). Type of data set: cell-based, human. The conditions noted are these: for Inhibition of growth of cell line U373 (in words): single agent, 7 days. An excerpt: From graphic plots of the glioblastoma multiforme GBM cell line U373 (available from the National Institute of Neurological Disorders and Stroke Molecular Pathogenesis Unit, Building 10, Room 5 D37, National Institutes of Health, 900 Rockville Pike, Bethesda, Md., 20892) as a function of exposure to different doses of drug for 7 days, the concentration of each compound that inhibited brain tumor cell proliferation by 50% (IC50) was estimated.
To identify novel therapeutic targets for the treatment of glioblastoma multiforme (GBM), cantharidin analogues were evaluated for their ability to inhibit growth of glioblastoma multiforme cells. Specifically, GBM cell line U373 was used in evaluations.
The total number of cells is counted in the triplicate cultures at each dose and in controls after 7 days and the average number of cells and the standard deviation is determined.
The amount of inhibition of GBM cell growth is expressed as the proportion of the number of cells in the experimental dishes compared to the number of cells in control dishes containing only the drug vehicle and culture medium. The average percent of control is plotted and bracketed by one standard deviation calculated from the triplicate measurements.
For all cell culture experiments, cells are allowed to grow in the presence or absence of different concentrations of drug or in the presence of the vehicle used to dissolve the drug, PBS for compound 100 and DMSO for compound 102. Cell counts are done in triplicate on day 3 and day 7 and inhibition of growth is expressed as a percentage of the number of cells present in the experimental well divided by the number of cells in a control well.

The test system of another data set is NCI-H69 cells. Put plainly: CellTiter-Glo assay, NCI-H69. It is filed as cell-based. The conditions noted are these: Homo sapiens; NCI-H69 Lung small cell, 72 hr; read-out: IC50 (50% Inhibition of Proliferation). How it is done: as §1, §2, §3, §4, §5
The test system of another data set is MOLT-4 cells. Put plainly: CellTiter-Glo assay, MOLT-4. Type of data set: cell-based. Particulars: Homo sapiens; MOLT-4 acute lympho, 72 hr; read-out: IC50 (50% Inhibition of Proliferation). As to the method:
as §1, §2, §3, §4, §5

Turning to `CC(C)(C)OC(=O)N1CCN(C(=O)C2C(C(=O)O)[C@H]3CC[C@@H]2O3)CC1` (stereo in doubt) [Compound 102, 4-(3-Carboxy-7oxa-bicyclo[2.2.1]heptane-2-carbonyl)piperazine-1-carboxylic acid tert-butyl ester], the IC50 in the data set with DU-145 cells came out at 13 µM; in the data set with MDA-MB-231 cells, 6.6 µM; with K-562 cells it was 13.7 µM; with GXF-209 cells, 5.3 µM; in the data set on NCI-H69 cells, 24.6 µM; with MOLT-4 cells, 5.6 µM. Also, the MIC with C. glabrata (isolate 07-2964, 24 Hours) was over 64 mg/L; in the data set with C. glabrata (isolate 07-2964, 48 Hours) it was over 64 mg/L. For the same compound, the “minimum inhibitory concentration (MIC)” value in the data set with C. glabrata (isolate 07-2965, 24 Hours) was over 64 mg/L; in the data set on C. glabrata (isolate 07-2965, 48 Hours) it was over 64 mg/L; with C. glabrata (isolate 07-3013, 24 Hours) it was over 64 mg/L; in the data set on C. glabrata (isolate 07-3013, 48 Hours), over 64 mg/L. For the same compound, in data set [1], the “Lipid solubility (in words)” value is recorded as “lipid soluble”. The “Inhibition of growth of cell line U373 (in words)” value in the data set with GBM cell line U373 is listed as “highly potent”.

Regarding `CN1CCN(C(=O)C2C(C(=O)O)[C@H]3CC[C@@H]2O3)CC1` (stereo partly shown) [Compound 100, Endothall 4-Methylpiperazine Monoamide], the IC50 in the data set with DU-145 cells is 16.4 µM; with MDA-MB-231 cells, 9.5 µM; with K-562 cells, 10.7 µM; with GXF-209 cells, 7.9 µM; in the data set with GBM cell line U373 (Homo sapiens, U373 MG, 168 h, U373, exposure for 7 days, estimated from graphic plots (FIG. 1), read-out: concentration that inhibited brain tumor cell proliferation by 50% (IC50)) it was 3 µM; with NCI-H69 cells it was 23.9 µM. Further, in the data set on MOLT-4 cells, the IC50 was found to be 5.7 µM. The MIC in the data set with C. glabrata (24 h) and in the data set on C. glabrata (48 h) was over 64 mg/L each time. Besides, the “minimum inhibitory concentration (MIC)” value is over 64 mg/L in the data set on C. glabrata (isolate 07-2965, 24 Hours); over 64 mg/L in the data set on C. glabrata (isolate 07-2965, 48 Hours); over 64 mg/L in the data set on C. glabrata (isolate 07-3013, 24 Hours); over 64 mg/L in the data set with C. glabrata (isolate 07-3013, 48 Hours). Further, the “Water solubility (in words)” value in data set [1] (own compounds) was “water soluble”. The “Inhibitory value against U373, comparison of the two compounds” value with GBM cell line U373 (10 μM, seven days (FIG. 8)) was “identical inhibitory values”. Also, the “Inhibition of growth of cell line U373 (in words)” value with GBM cell line U373 is on record as “potent inhibitor of GBMs in vitro; also recorded: Increasing dosages demonstrate a greater inhibition of growth; also recorded: modest inhibition of growth”; in the data set on GBM cell line U373 (listed as compound 100), “inhibitory activities at low micromolar concentrations; also recorded: dose dependent inhibition”.

These data come from patent US10023587B2, “Oxabicycloheptanes and oxabicycloheptenes, their preparation and use” (LIXTE BIOTECHNOLOGY, INC., priority 2007, dated 2018).
